What was measured:
[1] = molecular target: Serine/threonine-protein kinase PAK 4 (Homo sapiens, UniProt O96013); assay: Binding affinity to recombinant human full-length N-terminal GST-tagged PAK4 expressed in baculovirus expression system using SGKtide as substrate incubated for 1 hr by TR-FRET assay
[2] = molecular target: Mitogen-activated protein kinase kinase kinase 2 (Homo sapiens, UniProt Q9Y2U5); assay: Binding affinity to recombinant full-length N-terminal His-FLAG-GST-tagged MAP3K2 (unknown origin) (337 to 620 residues) expressed in baculovirus infected Sf9 insect cells incubated for 1 hr by TR-FRET assay
[3] = molecular target: Death-associated protein kinase 2 (Homo sapiens, UniProt Q9UIK4); assay: Binding affinity to recombinant full-length N-terminal His-FLAG-GST-tagged DAPK2 (unknown origin) expressed in baculovirus infected Sf9 insect cells incubated for 1 hr by TR-FRET assay
[4] = molecular target: Serine/threonine-protein kinase TBK1 (Homo sapiens, UniProt Q9UHD2); assay: Binding affinity to recombinant human full length N-terminal GST-tagged TBK1 expressed in baculovirus expression system using CKtide as substrate incubated for 1 hr by TR-FRET assay
[5] = molecular target: Rho-associated protein kinase 2 (Homo sapiens, UniProt O75116); assay: Binding affinity to recombinant full-length N-terminal His-FLAG-GST-tagged ROCK2 (unknown origin) (1 to 553 residues) expressed in baculovirus infected Sf9 insect cells incubated for 1 hr by TR-FRET assay
[6] = molecular target: AP2-associated protein kinase 1 (Homo sapiens, UniProt Q2M2I8); assay: Binding affinity to recombinant full-length N-terminal His-FLAG-GST-tagged AAK1 (unknown origin) expressed in baculovirus infected Sf9 insect cells incubated for 1 hr by TR-FRET assay
[7] = molecular target: Serine/threonine-protein kinase MRCK alpha (Homo sapiens, UniProt Q5VT25); assay: Binding affinity to recombinant full-length N-terminal His-FLAG-GST-tagged CDC42BPA (unknown origin) (1 to 574 residues) expressed in baculovirus infected Sf9 insect cells incubated for 1 hr by TR-FRET assay
[8] = molecular target: Protein kinase C gamma type (Homo sapiens, UniProt P05129); assay: Binding affinity to recombinant full-length N-terminal His-FLAG-tagged PRKCG (unknown origin) expressed in baculovirus infected Sf9 insect cells incubated for 1 hr by TR-FRET assay
[9] = molecular target: Mitogen-activated protein kinase kinase kinase kinase 2 (Homo sapiens, UniProt Q12851); assay: Binding affinity to recombinant full-length N-terminal His-FLAG-GST-tagged MAP4K2 (unknown origin) expressed in baculovirus infected Sf9 insect cells incubated for 1 hr by TR-FRET assay
[10] = molecular target: Ribosomal protein S6 kinase alpha-2 (Homo sapiens, UniProt Q15349); assay: Binding affinity to recombinant human full length N-terminal GST-tagged RPS6KA2 expressed in baculovirus expression system using S6K peptide as substrate incubated for 1 hr by TR-FRET assay
[11] = molecular target: Serine/threonine-protein kinase MARK1 (Homo sapiens, UniProt Q9P0L2); assay: Binding affinity to recombinant full-length N-terminal His-FLAG-tagged MARK1 (unknown origin) expressed in baculovirus infected Sf9 insect cells incubated for 1 hr by TR-FRET assay
CDK8/Cyclin C = CDK8/Cyclin C (Homo sapiens, UniProt P49336); assay: Binding affinity to recombinant human full length N-terminal GST-tagged CDK8 co-expressed with N-terminal GST-tagged CyclinC expressed in baculovirus expression system using RNA polymerase peptide as substrate incubated for 1 hr by TR-FRET assay
[12] = molecular target: Myosin light chain kinase, smooth muscle (Homo sapiens, UniProt Q15746); assay: Binding affinity to recombinant full-length N-terminal His-FLAG-GST-tagged MYLK (unknown origin) (1428 to 1771 residues) expressed in baculovirus infected Sf9 insect cells incubated for 1 hr by TR-FRET assay
[13] = molecular target: Mitogen-activated protein kinase 12 (Homo sapiens, UniProt P53778); assay: Binding affinity to recombinant full-length N-terminal His-FLAG-GST-tagged MAPK12 (unknown origin) expressed in baculovirus infected Sf9 insect cells incubated for 1 hr by TR-FRET assay
Ephrin type-A receptor 1 = Ephrin type-A receptor 1 (Homo sapiens, UniProt P21709); assay: Binding affinity to recombinant full-length N-terminal His-FLAG-GST-tagged EPHA1 (unknown origin) (586 to 976 residues) expressed in baculovirus infected Sf9 insect cells incubated for 1 hr by TR-FRET assay
[14] = molecular target: Mitogen-activated protein kinase 15 (Homo sapiens, UniProt Q8TD08); assay: Binding affinity to recombinant full-length N-terminal His-FLAG-GST-tagged MAPK15 (unknown origin) expressed in baculovirus infected Sf9 insect cells incubated for 1 hr by TR-FRET assay
[15] = molecular target: Serine/threonine-protein kinase 33 (Homo sapiens, UniProt Q9BYT3); assay: Binding affinity to recombinant full-length N-terminal His-FLAG-GST-tagged STK33 (unknown origin) expressed in baculovirus infected Sf9 insect cells incubated for 1 hr by TR-FRET assay
[16] = molecular target: Serine/threonine-protein kinase TAO3 (Homo sapiens, UniProt Q9H2K8); assay: Binding affinity to recombinant human full length N-terminal GST-tagged TAOK3 expressed in baculovirus expression system using PKC-epsilon peptide as substrate incubated for 1 hr by TR-FRET assay
[17] = molecular target: Protein kinase C alpha type (Homo sapiens, UniProt P17252); assay: Binding affinity to recombinant full-length N-terminal His-FLAG-GST-tagged PRKCA (unknown origin) expressed in baculovirus infected Sf9 insect cells incubated for 1 hr by TR-FRET assay
[18] = molecular target: Mitogen-activated protein kinase kinase kinase 14 (Homo sapiens, UniProt Q99558); assay: Binding affinity to recombinant N-terminal His-FLAG-GST-tagged MAP3K14 (unknown origin) (319 to 947 residues) expressed in baculovirus infected Sf9 insect cells incubated for 1 hr by TR-FRET assay
[19] = molecular target: Tyrosine-protein kinase Tec (Homo sapiens, UniProt P42680); assay: Binding affinity to recombinant human N-terminal GST-tagged TEC (359 to 631 residues) expressed in baculovirus expression system using Srctide as substrate incubated for 1 hr by TR-FRET assay
[20] = molecular target: Ribosomal protein S6 kinase alpha-3 (Homo sapiens, UniProt P51812); assay: Binding affinity to recombinant human full length N-terminal GST-tagged RPS6KA3 expressed in baculovirus expression system using S6K peptide as substrate incubated for 1 hr by TR-FRET assay
[21] = molecular target: Vascular endothelial growth factor receptor 2 (Homo sapiens, UniProt P35968); assay: Binding affinity to recombinant human full length N-terminal GST-tagged KDR (790 to 1356 residues) expressed in baculovirus expression system using CSKtide as substrate incubated for 1 hr by TR-FRET assay
[22] = molecular target: Platelet-derived growth factor receptor beta (Homo sapiens, UniProt P09619); assay: Binding affinity to recombinant human N-terminal his-tagged PDGFRB (558 to 1106 residues) expressed in baculovirus expression system incubated for 1 hr by TR-FRET assay
Sequence of Platelet-derived growth factor receptor beta (P09619 whole entry, the tested form may be a part): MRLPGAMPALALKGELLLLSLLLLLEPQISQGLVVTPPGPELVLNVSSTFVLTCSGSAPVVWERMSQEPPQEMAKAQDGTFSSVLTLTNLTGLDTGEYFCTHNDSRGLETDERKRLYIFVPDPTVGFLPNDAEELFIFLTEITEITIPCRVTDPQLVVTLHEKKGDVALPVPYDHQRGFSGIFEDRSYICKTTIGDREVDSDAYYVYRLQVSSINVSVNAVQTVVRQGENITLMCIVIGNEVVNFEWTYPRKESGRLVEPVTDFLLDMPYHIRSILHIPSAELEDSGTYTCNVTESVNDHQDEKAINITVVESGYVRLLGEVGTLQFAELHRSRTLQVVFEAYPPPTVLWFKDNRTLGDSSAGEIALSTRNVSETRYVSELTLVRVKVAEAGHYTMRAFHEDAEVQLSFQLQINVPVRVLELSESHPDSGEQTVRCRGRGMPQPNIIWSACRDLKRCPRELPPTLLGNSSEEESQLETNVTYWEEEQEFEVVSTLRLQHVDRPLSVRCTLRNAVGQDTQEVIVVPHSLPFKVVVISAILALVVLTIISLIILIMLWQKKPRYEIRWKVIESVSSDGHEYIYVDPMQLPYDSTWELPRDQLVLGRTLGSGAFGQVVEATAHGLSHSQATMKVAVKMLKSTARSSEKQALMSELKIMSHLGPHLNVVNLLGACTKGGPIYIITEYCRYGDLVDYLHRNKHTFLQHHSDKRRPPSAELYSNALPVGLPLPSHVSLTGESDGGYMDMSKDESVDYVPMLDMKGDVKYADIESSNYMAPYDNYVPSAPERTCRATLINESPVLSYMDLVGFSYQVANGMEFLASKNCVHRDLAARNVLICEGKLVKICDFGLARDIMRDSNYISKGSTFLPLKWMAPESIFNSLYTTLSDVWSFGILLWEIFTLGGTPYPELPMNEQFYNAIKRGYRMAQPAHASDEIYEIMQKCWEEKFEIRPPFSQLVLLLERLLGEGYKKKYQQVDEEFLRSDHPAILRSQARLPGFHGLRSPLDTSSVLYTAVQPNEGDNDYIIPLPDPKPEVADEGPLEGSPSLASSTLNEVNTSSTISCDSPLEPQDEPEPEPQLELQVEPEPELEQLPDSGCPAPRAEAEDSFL

Sequence of Serine/threonine-protein kinase MRCK alpha (Q5VT25 whole entry, the tested form may be a part): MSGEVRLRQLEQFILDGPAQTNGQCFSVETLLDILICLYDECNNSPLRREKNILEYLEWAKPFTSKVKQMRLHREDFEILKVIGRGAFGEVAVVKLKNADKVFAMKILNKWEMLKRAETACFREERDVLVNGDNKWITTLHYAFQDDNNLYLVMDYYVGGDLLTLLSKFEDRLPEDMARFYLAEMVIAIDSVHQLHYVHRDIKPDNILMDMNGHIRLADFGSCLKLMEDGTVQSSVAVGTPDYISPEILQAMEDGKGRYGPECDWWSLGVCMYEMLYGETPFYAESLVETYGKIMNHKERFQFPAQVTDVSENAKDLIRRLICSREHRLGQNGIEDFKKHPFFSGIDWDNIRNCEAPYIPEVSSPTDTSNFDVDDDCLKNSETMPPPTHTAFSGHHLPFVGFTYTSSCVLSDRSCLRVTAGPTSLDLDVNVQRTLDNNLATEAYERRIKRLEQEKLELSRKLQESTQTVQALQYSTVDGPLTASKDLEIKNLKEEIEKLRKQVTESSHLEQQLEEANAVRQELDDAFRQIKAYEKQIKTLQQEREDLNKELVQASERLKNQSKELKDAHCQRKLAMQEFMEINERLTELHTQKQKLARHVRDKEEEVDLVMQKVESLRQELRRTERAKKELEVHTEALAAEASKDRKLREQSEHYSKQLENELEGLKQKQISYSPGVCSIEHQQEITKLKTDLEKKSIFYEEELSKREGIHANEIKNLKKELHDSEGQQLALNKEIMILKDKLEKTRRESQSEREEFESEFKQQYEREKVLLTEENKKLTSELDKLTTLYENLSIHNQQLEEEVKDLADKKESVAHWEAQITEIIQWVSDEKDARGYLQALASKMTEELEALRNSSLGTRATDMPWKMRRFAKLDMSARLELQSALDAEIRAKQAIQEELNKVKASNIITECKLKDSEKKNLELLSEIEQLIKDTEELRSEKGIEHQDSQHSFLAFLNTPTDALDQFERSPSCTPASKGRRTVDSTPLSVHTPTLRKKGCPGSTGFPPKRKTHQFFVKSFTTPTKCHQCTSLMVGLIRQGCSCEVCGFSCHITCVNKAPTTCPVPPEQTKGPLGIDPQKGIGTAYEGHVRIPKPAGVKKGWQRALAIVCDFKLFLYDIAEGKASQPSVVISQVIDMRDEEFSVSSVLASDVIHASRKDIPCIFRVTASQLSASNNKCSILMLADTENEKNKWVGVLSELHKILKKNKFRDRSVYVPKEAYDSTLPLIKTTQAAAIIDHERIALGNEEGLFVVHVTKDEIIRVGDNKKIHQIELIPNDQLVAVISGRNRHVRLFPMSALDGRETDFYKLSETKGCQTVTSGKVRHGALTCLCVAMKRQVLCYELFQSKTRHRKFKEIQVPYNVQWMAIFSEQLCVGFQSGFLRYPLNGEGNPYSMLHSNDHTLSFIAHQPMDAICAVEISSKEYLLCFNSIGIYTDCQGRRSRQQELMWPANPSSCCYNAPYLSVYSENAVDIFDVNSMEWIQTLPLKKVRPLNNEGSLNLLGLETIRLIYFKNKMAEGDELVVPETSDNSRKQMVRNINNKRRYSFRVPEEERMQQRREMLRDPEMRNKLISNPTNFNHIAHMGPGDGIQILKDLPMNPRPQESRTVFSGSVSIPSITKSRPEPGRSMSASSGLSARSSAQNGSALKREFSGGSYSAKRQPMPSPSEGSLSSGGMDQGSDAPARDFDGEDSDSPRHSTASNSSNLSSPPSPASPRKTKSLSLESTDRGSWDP
Sequence of AP2-associated protein kinase 1 (Q2M2I8 whole entry, the tested form may be a part): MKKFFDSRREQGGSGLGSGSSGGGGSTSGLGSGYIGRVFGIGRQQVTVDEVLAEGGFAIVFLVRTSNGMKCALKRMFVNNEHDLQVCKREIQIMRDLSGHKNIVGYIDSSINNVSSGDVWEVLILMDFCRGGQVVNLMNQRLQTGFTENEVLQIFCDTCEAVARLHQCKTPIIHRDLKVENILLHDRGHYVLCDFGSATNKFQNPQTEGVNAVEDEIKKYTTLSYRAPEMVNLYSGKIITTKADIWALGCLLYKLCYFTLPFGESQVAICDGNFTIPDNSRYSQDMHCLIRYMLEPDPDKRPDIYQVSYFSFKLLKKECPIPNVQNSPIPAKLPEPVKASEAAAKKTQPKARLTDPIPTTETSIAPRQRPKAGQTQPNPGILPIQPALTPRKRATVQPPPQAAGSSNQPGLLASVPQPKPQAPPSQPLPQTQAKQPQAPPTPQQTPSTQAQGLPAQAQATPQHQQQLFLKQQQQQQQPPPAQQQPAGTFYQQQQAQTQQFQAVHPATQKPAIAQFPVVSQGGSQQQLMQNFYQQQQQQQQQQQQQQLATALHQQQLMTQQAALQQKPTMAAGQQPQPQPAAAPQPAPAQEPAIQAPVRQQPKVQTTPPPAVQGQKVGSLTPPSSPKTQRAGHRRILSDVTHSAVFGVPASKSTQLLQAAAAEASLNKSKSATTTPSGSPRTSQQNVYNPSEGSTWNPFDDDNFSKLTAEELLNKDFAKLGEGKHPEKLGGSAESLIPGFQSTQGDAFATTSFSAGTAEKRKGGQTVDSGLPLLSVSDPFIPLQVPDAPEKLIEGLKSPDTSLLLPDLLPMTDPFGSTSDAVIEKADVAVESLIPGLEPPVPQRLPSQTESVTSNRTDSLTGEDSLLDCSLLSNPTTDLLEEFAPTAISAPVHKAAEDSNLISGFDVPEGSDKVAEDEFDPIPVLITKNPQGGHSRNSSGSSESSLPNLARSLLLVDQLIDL
Sequence of CDK8/Cyclin C (P49336 whole entry, the tested form may be a part): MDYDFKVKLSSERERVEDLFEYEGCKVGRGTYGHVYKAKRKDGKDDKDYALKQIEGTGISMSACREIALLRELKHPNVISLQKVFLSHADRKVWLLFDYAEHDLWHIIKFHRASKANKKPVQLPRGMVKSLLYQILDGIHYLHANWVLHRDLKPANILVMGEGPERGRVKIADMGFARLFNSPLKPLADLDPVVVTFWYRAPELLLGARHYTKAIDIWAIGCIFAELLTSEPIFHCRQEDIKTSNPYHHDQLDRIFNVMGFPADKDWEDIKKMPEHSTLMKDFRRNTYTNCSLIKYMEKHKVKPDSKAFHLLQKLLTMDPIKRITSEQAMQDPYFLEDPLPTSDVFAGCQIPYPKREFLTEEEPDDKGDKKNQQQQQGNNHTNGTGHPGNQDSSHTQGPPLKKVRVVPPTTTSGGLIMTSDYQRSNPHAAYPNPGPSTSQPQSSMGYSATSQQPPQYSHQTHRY
Sequence of CDK8/Cyclin C (P24863 whole entry, further chain, the tested form may be a part): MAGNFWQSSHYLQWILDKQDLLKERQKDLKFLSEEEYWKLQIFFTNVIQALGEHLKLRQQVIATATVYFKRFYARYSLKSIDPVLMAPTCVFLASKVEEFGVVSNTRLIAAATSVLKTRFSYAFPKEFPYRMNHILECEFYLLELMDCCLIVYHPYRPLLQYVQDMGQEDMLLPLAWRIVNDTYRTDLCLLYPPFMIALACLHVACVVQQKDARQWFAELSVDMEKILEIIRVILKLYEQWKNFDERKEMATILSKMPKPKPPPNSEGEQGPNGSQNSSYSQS
Sequence of Death-associated protein kinase 2 (Q9UIK4 whole entry): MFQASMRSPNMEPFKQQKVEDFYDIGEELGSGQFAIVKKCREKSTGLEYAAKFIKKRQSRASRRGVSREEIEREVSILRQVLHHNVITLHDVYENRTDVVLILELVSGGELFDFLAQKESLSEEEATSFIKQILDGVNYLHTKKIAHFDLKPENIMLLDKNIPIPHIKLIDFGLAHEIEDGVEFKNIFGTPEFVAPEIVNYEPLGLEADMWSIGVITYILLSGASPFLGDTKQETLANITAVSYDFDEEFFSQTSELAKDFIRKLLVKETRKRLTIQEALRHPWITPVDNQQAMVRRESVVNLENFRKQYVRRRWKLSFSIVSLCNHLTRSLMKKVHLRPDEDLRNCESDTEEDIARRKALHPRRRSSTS

Compound | Kd [1] | Kd [2] | Kd [3] | Kd [4] | Kd [5] | Kd [6] | Kd [7] | Kd [8] | Kd [9] | Kd [10] | Kd [11] | Kd (CDK8/Cyclin C) | Kd [12] | Kd [13] | Kd (Ephrin type-A receptor 1) | Kd [14] | Kd [15] | Kd [16] | Kd [17] | Kd [18] | further results
CO[C@@H]1[C@H](NCCOCCOCCOCCNC(=O)CCC2=[N+]3C(=Cc4c(C)cc(C)n4[B-]3(F)F)C=C2)C[C@H]2O[C@]1(C)n1c3ccccc3c3c4c(c5c6ccccc6n2c5c31)C(=O)NC4 | 5 nM | 38 nM | 34 nM | 17 nM | 23 nM | 6 nM | 43 nM | 72 nM | 6 nM | 8 nM | 9 nM | 299 nM | 369 nM | 948 nM | 586 nM | 113 nM | 8 nM | 360 nM | 92 nM | 352 nM | Kd [19]: 1060 nM; Kd [20]: 4 nM; Kd [21]: 193 nM; Kd [22]: 165 nM
CO[C@@H]1[C@H](N(C)CCOCCOCCOCCNC(=O)CCC2=[N+]3C(=Cc4c(C)cc(C)n4[B-]3(F)F)C=C2)C[C@H]2O[C@]1(C)n1c3ccccc3c3c4c(c5c6ccccc6n2c5c31)C(=O)NC4 | 6 nM | 53 nM | 60 nM | 9 nM | 16 nM | 5 nM | 25 nM | 46 nM | 7 nM | 4 nM | 3 nM | 148 nM | 298 nM | 1020 nM | 588 nM | 306 nM | 6 nM | 293 nM | 43 nM | 445 nM | Kd [19]: 1460 nM; Kd [20]: 2 nM; Kd [21]: 135 nM; Kd [22]: 257 nM

From ChEMBL document CHEMBL4321812, “Structure-based rational design of staurosporine-based fluorescent probe with broad-ranging kinase affinity for kinase panel application” (Bioorg Med Chem Lett, 2019)
